For nine compounds, MIC results are on record in ChEMBL document CHEMBL5625248, “Identification of unique indolylcyanoethylenyl sulfonylanilines as novel structural scaffolds of potential antibacterial agents” (Eur J Med Chem, 2023).

Common to all, as to format: functional
Test [1] deals with Staphylococcus aureus. Description: Antibacterial activity against methicilin-resistant Staphylococcus aureus N315 assessed as inhibition of bacterial growth incubated for 18 hrs by two fold broth microdilution assay.
The subject of a further test is Enterococcus faecalis. Description: Antibacterial activity against Enterococcus faecalis assessed as inhibition of bacterial growth incubated for 18 hrs by two fold broth microdilution assay. A general note: Dilution methods test growth across graded concentrations, often in twofold steps.
In test [2] the test system is Staphylococcus aureus. Description: Antibacterial activity against Staphylococcus aureus assessed as inhibition of bacterial growth incubated for 18 hrs by two fold broth microdilution assay.
For test [3], the system named is Staphylococcus aureus. Description: Antibacterial activity against Staphylococcus aureus ATCC 25923 assessed as inhibition of bacterial growth incubated for 18 hrs by two fold broth microdilution assay.
The subject of test [4] is Staphylococcus aureus. Description: Antibacterial activity against Staphylococcus aureus ATCC 29213 assessed as inhibition of bacterial growth incubated for 18 hrs by two fold broth microdilution assay.
The subject of another test is Klebsiella pneumoniae. Description: Antibacterial activity against Klebsiella pneumoniae assessed as inhibition of bacterial growth incubated for 18 hrs by two fold broth microdilution assay.
Test [5] deals with Escherichia coli. Description: Antibacterial activity against Escherichia coli assessed as inhibition of bacterial growth incubated for 18 hrs by two fold broth microdilution assay.
The test system of test [6] is Pseudomonas aeruginosa. The experiment in a line: Antibacterial activity against Pseudomonas aeruginosa assessed as inhibition of bacterial growth incubated for 18 hrs by two fold broth microdilution assay.
A further test has as its system Acinetobacter baumannii. Description: Antibacterial activity against Acinetobacter baumannii assessed as inhibition of bacterial growth incubated for 18 hrs by two fold broth microdilution assay.
Test [7] concerns Pseudomonas aeruginosa. Description: Antibacterial activity against Pseudomonas aeruginosa ATCC 27853 assessed as inhibition of bacterial growth incubated for 18 hrs by two fold broth microdilution assay.
For test [8], the system named is Escherichia coli. Description: Antibacterial activity against Escherichia coli ATCC 25922 assessed as inhibition of bacterial growth incubated for 18 hrs by two fold broth microdilution assay.

≈ marks a conversion by molar mass, not a printed value.

For the compound `C=CCn1cc(/C=C(\C#N)S(=O)(=O)c2ccc(NC(C)=O)cc2)c2ccccc21`, the MIC in the test on Staphylococcus aureus [1] came to 8 µg/mL (≈ 19.7 µM); with Enterococcus faecalis it was 8 µg/mL (≈ 19.7 µM); with Staphylococcus aureus [2], 256 µg/mL (≈ 631 µM); with Staphylococcus aureus [3], 4 µg/mL (≈ 9.86 µM); in the test with Staphylococcus aureus [4] it was 256 µg/mL (≈ 631 µM); in the test with Klebsiella pneumoniae it was 8 µg/mL (≈ 19.7 µM). In addition, the MIC in the test with Escherichia coli [5] was determined as 8 µg/mL (≈ 19.7 µM); in the test on Pseudomonas aeruginosa [6], 8 µg/mL (≈ 19.7 µM); in the test on Acinetobacter baumannii, 2 µg/mL (≈ 4.93 µM); in the test with Pseudomonas aeruginosa [7], 16 µg/mL (≈ 39.5 µM); in the test on Escherichia coli [8], 1 µg/mL (≈ 2.47 µM).

Take `CCn1cc(/C=C(\C#N)S(=O)(=O)c2ccc(N)cc2)c2ccccc21`: the MIC amounted to 16 µg/mL (≈ 45.5 µM) in the test with Staphylococcus aureus [1]; 8 µg/mL (≈ 22.8 µM) with Enterococcus faecalis; 1 µg/mL (≈ 2.85 µM) with Staphylococcus aureus [2]; 64 µg/mL (≈ 182 µM) in the test on Staphylococcus aureus [3]; 1 µg/mL (≈ 2.85 µM) with Staphylococcus aureus [4]; 8 µg/mL (≈ 22.8 µM) in the test on Klebsiella pneumoniae. Also, the MIC amounted to 8 µg/mL (≈ 22.8 µM) in the test with Escherichia coli [5]; 1 µg/mL (≈ 2.85 µM) in the test with Pseudomonas aeruginosa [6]; 1 µg/mL (≈ 2.85 µM) with Acinetobacter baumannii; 8 µg/mL (≈ 22.8 µM) in the test on Pseudomonas aeruginosa [7]; 8 µg/mL (≈ 22.8 µM) in the test with Escherichia coli [8].

For `CC(=O)Nc1ccc(S(=O)(=O)/C(C#N)=C/c2cn(CC(=O)N(C(C)C)C(C)C)c3ccccc23)cc1`, the MIC worked out at 64 µg/mL (≈ 126 µM) in the test with Staphylococcus aureus [1]; 64 µg/mL (≈ 126 µM) with Enterococcus faecalis; 32 µg/mL (≈ 63.2 µM) with Staphylococcus aureus [2]; 32 µg/mL (≈ 63.2 µM) in the test with Staphylococcus aureus [3]; 64 µg/mL (≈ 126 µM) in the test with Staphylococcus aureus [4]; 32 µg/mL (≈ 63.2 µM) in the test with Klebsiella pneumoniae. In addition, the MIC in the test on Escherichia coli [5] is 64 µg/mL (≈ 126 µM); in the test with Pseudomonas aeruginosa [6], 64 µg/mL (≈ 126 µM); in the test with Acinetobacter baumannii, 32 µg/mL (≈ 63.2 µM); in the test on Pseudomonas aeruginosa [7], 64 µg/mL (≈ 126 µM); with Escherichia coli [8], 64 µg/mL (≈ 126 µM).

Regarding `CCCCn1cc(/C=C(\C#N)S(=O)(=O)c2ccc(NC(C)=O)cc2)c2ccccc21`, the MIC with Staphylococcus aureus [1] stood at 256 µg/mL (≈ 607 µM); in the test on Enterococcus faecalis, 4 µg/mL (≈ 9.49 µM); with Staphylococcus aureus [2] it was 2 µg/mL (≈ 4.74 µM); in the test on Staphylococcus aureus [3], 1 µg/mL (≈ 2.37 µM); in the test on Staphylococcus aureus [4] it was 8 µg/mL (≈ 19 µM); in the test with Klebsiella pneumoniae, 8 µg/mL (≈ 19 µM). The MIC with Escherichia coli [5] worked out at 64 µg/mL (≈ 152 µM); in the test with Pseudomonas aeruginosa [6] it was 4 µg/mL (≈ 9.49 µM); with Acinetobacter baumannii it was 1 µg/mL (≈ 2.37 µM); in the test on Pseudomonas aeruginosa [7], 8 µg/mL (≈ 19 µM); with Escherichia coli [8], 4 µg/mL (≈ 9.49 µM).

For `C#CCn1cc(/C=C(\C#N)S(=O)(=O)c2ccc(N)cc2)c2ccccc21`, the MIC is 2 µg/mL (≈ 5.53 µM) in the test with Staphylococcus aureus [1]; 2 µg/mL (≈ 5.53 µM) with Enterococcus faecalis; 4 µg/mL (≈ 11.1 µM) in the test with Staphylococcus aureus [2]; 16 µg/mL (≈ 44.3 µM) in the test with Staphylococcus aureus [3]; 2 µg/mL (≈ 5.53 µM) with Staphylococcus aureus [4]; 8 µg/mL (≈ 22.1 µM) with Klebsiella pneumoniae. For the same compound, the MIC in the test with Escherichia coli [5] stood at 128 µg/mL (≈ 354 µM); with Pseudomonas aeruginosa [6] it was 0.5 µg/mL (≈ 1.38 µM); with Acinetobacter baumannii, 0.5 µg/mL (≈ 1.38 µM); in the test with Pseudomonas aeruginosa [7], 4 µg/mL (≈ 11.1 µM); in the test with Escherichia coli [8] it was 256 µg/mL (≈ 708 µM).

Consider `CCn1cc(/C=C(\C#N)S(=O)(=O)c2ccc(NC(C)=O)cc2)c2ccccc21`, for which the MIC stood at 64 µg/mL (≈ 163 µM) with Staphylococcus aureus [1]; 16 µg/mL (≈ 40.7 µM) in the test with Enterococcus faecalis; 128 µg/mL (≈ 325 µM) in the test on Staphylococcus aureus [2]; 4 µg/mL (≈ 10.2 µM) with Staphylococcus aureus [3]; 4 µg/mL (≈ 10.2 µM) in the test with Staphylococcus aureus [4]; 32 µg/mL (≈ 81.3 µM) in the test on Klebsiella pneumoniae. In addition, the MIC in the test on Escherichia coli [5] was found to be 128 µg/mL (≈ 325 µM); in the test on Pseudomonas aeruginosa [6], 64 µg/mL (≈ 163 µM); in the test with Acinetobacter baumannii, 64 µg/mL (≈ 163 µM); with Pseudomonas aeruginosa [7], 8 µg/mL (≈ 20.3 µM); in the test on Escherichia coli [8], 128 µg/mL (≈ 325 µM).

`CCCCCCn1cc(/C=C(\C#N)S(=O)(=O)c2ccc(NC(C)=O)cc2)c2ccccc21`: the MIC in the test with Staphylococcus aureus [1] came out at 32 µg/mL (≈ 71.2 µM); in the test on Enterococcus faecalis, 4 µg/mL (≈ 8.9 µM); with Staphylococcus aureus [2] it was 256 µg/mL (≈ 569 µM); in the test with Staphylococcus aureus [3], 4 µg/mL (≈ 8.9 µM); in the test on Staphylococcus aureus [4] it was 1 µg/mL (≈ 2.22 µM); in the test on Klebsiella pneumoniae, 256 µg/mL (≈ 569 µM). For the same compound, the MIC with Escherichia coli [5] stood at 8 µg/mL (≈ 17.8 µM); in the test on Pseudomonas aeruginosa [6], 4 µg/mL (≈ 8.9 µM); in the test with Acinetobacter baumannii, 8 µg/mL (≈ 17.8 µM); with Pseudomonas aeruginosa [7], 8 µg/mL (≈ 17.8 µM); in the test on Escherichia coli [8] it was 8 µg/mL (≈ 17.8 µM).

Take `N#C/C(=C\c1c[nH]c2cc(F)ccc12)S(=O)(=O)c1ccc(N)cc1`: the MIC amounted to 16 µg/mL (≈ 46.9 µM) with Staphylococcus aureus [1]; 8 µg/mL (≈ 23.4 µM) with Enterococcus faecalis; 4 µg/mL (≈ 11.7 µM) with Staphylococcus aureus [2]; 4 µg/mL (≈ 11.7 µM) with Staphylococcus aureus [3]; 128 µg/mL (≈ 375 µM) in the test with Staphylococcus aureus [4]; 64 µg/mL (≈ 187 µM) with Klebsiella pneumoniae. Besides, the MIC came out at 256 µg/mL (≈ 750 µM) in the test on Escherichia coli [5]; 4 µg/mL (≈ 11.7 µM) in the test with Pseudomonas aeruginosa [6]; 8 µg/mL (≈ 23.4 µM) in the test on Acinetobacter baumannii; 8 µg/mL (≈ 23.4 µM) in the test on Pseudomonas aeruginosa [7]; 8 µg/mL (≈ 23.4 µM) in the test with Escherichia coli [8].

As for `N#C/C(=C\c1c[nH]c2cccc(Cl)c12)S(=O)(=O)c1ccc(N)cc1`, the MIC in the test with Staphylococcus aureus [1] amounted to 64 µg/mL (≈ 179 µM); in the test on Enterococcus faecalis, 32 µg/mL (≈ 89.4 µM); in the test with Staphylococcus aureus [2], 32 µg/mL (≈ 89.4 µM); with Staphylococcus aureus [3], 128 µg/mL (≈ 358 µM); with Staphylococcus aureus [4], 32 µg/mL (≈ 89.4 µM); in the test on Klebsiella pneumoniae, 4 µg/mL (≈ 11.2 µM). The MIC with Escherichia coli [5] was found to be 256 µg/mL (≈ 715 µM); with Pseudomonas aeruginosa [6], 64 µg/mL (≈ 179 µM); in the test with Acinetobacter baumannii, 16 µg/mL (≈ 44.7 µM); with Pseudomonas aeruginosa [7] it was 64 µg/mL (≈ 179 µM); in the test with Escherichia coli [8], 64 µg/mL (≈ 179 µM).

Broadly, the MIC is the lowest concentration found to suppress growth.
